Data from patent US10011586B2, “Heterocyclic compound, method for preparing the same, and pharmaceutical composition comprising the same” (Daewoong Pharmaceutical Co., Ltd., priority 2015, dated 2018).
Like-named read-outs stand apart in the source and are kept apart here.

Experiments:
[1] = biological target: T1, PRS enzyme (Homo sapiens, UniProt P07814); assay: PRS enzyme activity inhibition experiment; assay type: biochemical
T1 construct: the portion corresponding to PRS in cDNA of EPRS was subcloned; made in house
T1 sequence (P07814 1007-1512 limits assumed): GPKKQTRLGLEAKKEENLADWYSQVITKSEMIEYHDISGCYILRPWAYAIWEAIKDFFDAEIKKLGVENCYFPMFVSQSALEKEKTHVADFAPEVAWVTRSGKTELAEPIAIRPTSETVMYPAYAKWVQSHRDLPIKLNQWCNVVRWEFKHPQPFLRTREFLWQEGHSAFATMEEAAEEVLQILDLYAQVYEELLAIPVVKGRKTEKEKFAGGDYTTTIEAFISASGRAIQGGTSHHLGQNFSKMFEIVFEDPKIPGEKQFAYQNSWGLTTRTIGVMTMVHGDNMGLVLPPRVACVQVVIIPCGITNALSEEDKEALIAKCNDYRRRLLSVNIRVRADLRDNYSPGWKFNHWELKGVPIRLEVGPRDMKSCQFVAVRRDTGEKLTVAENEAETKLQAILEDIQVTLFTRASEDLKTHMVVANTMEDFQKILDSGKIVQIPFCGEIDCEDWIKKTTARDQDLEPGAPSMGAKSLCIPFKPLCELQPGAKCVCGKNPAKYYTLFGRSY
Experimental: Specifically, the portion corresponding to PRS in cDNA of EPRS was subcloned, and the obtained high-purity PRS protein was purified and used in the experiment. The compounds (1 μM) prepared in Examples were added into the reaction buffer (20 mM KPO4 (pH 7.4), 6 mM MgAc, 5 mM ATP, […] tRNA, 0.5 mM DTT, […][^3H]proline (1 mCi/mL)) and allowed to react at 37° C. for 5 to 10 minutes. The reaction was terminated with 3M paper that was in advance dried by addition of 5% TCA. The radioactivity was measured using a liquid scintillation counter.
% Inhibition and IC50 values of the respective compounds were calculated and analyzed using Microsoft Excel or Sigma Plot 8.0. In Table 1, the results are divided into A, B and C according to the range of IC50.

[2] = tested on: NCI-H460 cells; assay: Cancer cell growth inhibition experiment (MTT assay); assay type: cell-based; conditions: Homo sapiens, lung cancer cell line, compounds 48 hours, cell viability by MTT assay
Experimental: NCl-H460 cells, lung cancer cell lines, were cultured in 5% CO2, 37° C. incubator using a flask for 75 cm^2 tissue culture. 96-well plates were used for the evaluation. These were prepared by differently applying at concentrations in the range of 6,000 to 12,000 cells/well according to the growth rate of the cell lines. The medium containing 5% FBS were dispensed in 200 μL/well and used. The medium were cultured for 24 hours. After confirming the cell status and dispensing form of a 96-well plate under a microscope, they were used for subsequent experiments. The compounds were evaluated at concentrations of 100, 30, 10, 3, 1, 0.3, 0.03, 0.01 μM. After removing the existing medium, the compounds with various concentrations were treated in an amount of 200 μL/well. The compounds-treated plates were further cultured for 48 hours, and the cell viabilities were measured by MTT assay to calculate IC50 values.
% Inhibition and IC50 values of the respective compounds were calculated and analyzed using Sigma Plot 8.0. In Table 2, the results are divided into A, B and C according to the range of IC50. The case where the derived IC50 is 3 μM or less is represented by “A”, the case where the IC50 is 3 to 10 μM is represented by “B”, and the case where the IC50 is 10 μM or higher is represented by “C”.

[3] = purified PRS protein subcloned from EPRS cDNA, [3H]proline, 37° C., 5 to 10 minutes, liquid scintillation counter, read-out: PRS IC50

Row | Compound | IC50 [1, 3] [nM] | IC50 [2] [nM] | IC50 [1] [nM]
1 | Cc1c(-c2cccc(Cl)c2)ccc2c1ncn2CC(=O)C[C@H]1NCCC[C@@H]1O [Example 17, 1-(5-(3-chlorophenyl)-4-methyl-1H-benzo[d]imidazol-1-yl)-3-((2R,3S)-3-hydroxypiperidin-2-yl)propan-2-one] | 100 to 500 | ≥ 10000 | –
2 | O=C(C[C@H]1NCCC[C@@H]1O)Cn1cnc2ccc(-c3ccc(F)c(Cl)c3)cc21 [Example 33, 1-(6-(3-chloro-4-fluorophenyl)-1H-benzo[d]imidazol-1-yl)-3-((2R,3S)-3-hydroxypiperidin-2-yl)propan-2-one] | < 100 | 3000 to 10000 | –
3 | Cc1c(-c2cscn2)ccc2c1ncn2CC(=O)C[C@H]1NCCC[C@@H]1O [Example 23, 1-((2R,3S)-3-hydroxypiperidin-2-yl)-3-(4-methyl-5-(thiazol-4-yl)-1H-benzo[d]imidazol-1-yl)propan-2-one] | < 100 | ≥ 10000 | –
4 | O=C(C[C@H]1NCCC[C@@H]1O)Cn1cnc2cc(-c3cccc(Cl)c3)cnc21 [Example 14, 1-(6-(3-chlorophenyl)-3H-imidazo[4,5-b]pyridin-3-yl)-3-((2R,3S)-3-hydroxypiperidin-2-yl)propan-2-one] | 100 to 500 | ≥ 10000 | –
5 | O=C(C[C@H]1NCCC[C@@H]1O)Cn1cnc2ccc(-c3ccccc3)cc21 [Example 24, 1-((2R,3S)-3-hydroxypiperidin-2-yl)-3-(6-phenyl-1H-benzo[d]imidazol-1-yl)propan-2-one] | < 100 | 3000 to 10000 | –
6 | O=C(C[C@H]1NCCC[C@@H]1O)Cn1cnc2c(-c3ccccc3)cccc21 [Example 1, 1-((2R,3S)-3-hydroxypiperidin-2-yl)-3-(4-phenyl-1H-benzo[d]imidazol-1-yl)propan-2-one] | 100 to 500 | ≥ 10000 | –
7 | Cc1c(-c2cccc(C(F)(F)F)c2)ccc2c1ncn2CC(=O)C[C@H]1NCCC[C@@H]1O [Example 21, 1-((2R,3S)-3-hydroxypiperidin-2-yl)-3-(4-methyl-5-(3-(trifluoromethyl)phenyl)-1H-benzo[d]imidazol-1-yl)propan-2-one] | 100 to 500 | ≥ 10000 | –
8 | O=C(C[C@H]1NCCC[C@@H]1O)Cn1cnc2ccc(-c3cc(F)cc(Cl)c3)cc21 [Example 32, 1-(6-(3-chloro-5-fluorophenyl)-1H-benzo[d]imidazol-1-yl)-3-((2R,3S)-3-hydroxypiperidin-2-yl)propan-2-one] | < 100 | ≤ 3000 | –
9 | O=C(C[C@H]1NCCC[C@@H]1O)Cn1cnc2ccc(-c3cccc(F)c3)cc21 [Example 25, 1-(6-(3-fluorophenyl)-1H-benzo[d]imidazol-1-yl)-3-((2R,3S)-3-hydroxypiperidin-2-yl)propan-2-one] | < 100 | ≤ 3000 | –
10 | O=C(C[C@H]1NCCC[C@@H]1O)Cn1cnc2ccc(-c3cccc(C(F)(F)F)c3)cc21 [Example 29, 1-((2R,3S)-3-hydroxypiperidin-2-yl)-3-(6-(3-(trifluoromethyl)phenyl)-1H-benzo[d]imidazol-1-yl)propan-2-one] | < 100 | ≤ 3000 | –
11 | O=C(C[C@H]1NCCC[C@@H]1O)Cn1cnc2cccc(-c3ccc(Cl)cc3)c21 [Example 51, 1-(7-(4-chlorophenyl)-1H-benzo[d]imidazol-1-yl)-3-((2R,3S)-3-hydroxypiperidin-2-yl)propan-2-one] | – | ≥ 10000 | 100 to 500
12 | O=C(C[C@H]1NCCC[C@@H]1O)Cn1cnc2ccc(-c3cccc(Cl)c3)cc21 [Example 27, 1-(6-(3-chlorophenyl)-1H-benzo[d]imidazol-1-yl)-3-((2R,3S)-3-hydroxypiperidin-2-yl)propan-2-one] | < 100 | ≤ 3000 | –

The next lines start with results.

Row | IC50 [1, 3] [nM] | IC50 [2] [nM] | Compound | IC50 [1] [nM]
13 | < 100 | ≤ 3000 | O=C(C[C@H]1NCCC[C@@H]1O)Cn1cnc2ccc(-c3cccc(C(F)(F)F)c3)nc21 [Example 47, 1-((2R,3S)-3-hydroxypiperidin-2-yl)-3-(5-(3-(trifluoromethyl)phenyl)-3H-imidazo[4,5-b]pyridin-3-yl)propan-2-one] | –
14 | < 100 | 3000 to 10000 | O=C(C[C@H]1NCCC[C@@H]1O)Cn1cnc2ccc(-c3ccc(F)cc3)nc21 [Example 45, 1-(5-(4-fluorophenyl)-3H-imidazo[4,5-b]pyridin-3-yl)-3-((2R,3S)-3-hydroxypiperidin-2-yl)propan-2-one] | –
15 | 100 to 500 | ≥ 10000 | O=C(C[C@H]1NCCC[C@@H]1O)Cn1cnc2ccc(-c3cscn3)cc21 [Example 39, 1-((2R,3S)-3-hydroxypiperidin-2-yl)-3-(6-(thiazol-4-yl)-1H-benzo[d]imidazol-1-yl)propan-2-one] | –
16 | 100 to 500 | ≥ 10000 | OC(C[C@H]1NCCC[C@@H]1O)Cn1cnc2ccc(-c3cccc(Cl)c3)cc21 (stereo partly drawn) [Example 63, (2R,3S)-2-(3-(6-(3-chlorophenyl)-1H-benzo[d]imidazol-1-yl)-2-hydroxypropyl)piperidin-3-ol] | –
17 | 100 to 500 | ≥ 10000 | O=C(C[C@H]1NCCC[C@@H]1O)Cn1cnc2ccc(-c3cc[nH]n3)cc21 [Example 38, 1-(6-(1H-pyrazol-3-yl)-1H-benzo[d]imidazol-1-yl)-3-((2R,3S)-3-hydroxypiperidin-2-yl)propan-2-one] | –
18 | < 100 | ≤ 3000 | O=C(C[C@H]1NCCC[C@@H]1O)Cn1cnc2cccc(-c3cccc(F)c3)c21 [Example 49, 1-(7-(3-fluorophenyl)-1H-benzo[d]imidazol-1-yl)-3-((2R,3S)-3-hydroxypiperidin-2-yl)propan-2-one] | –
19 | > 500 | ≥ 10000 | O=C(C[C@H]1NCCC[C@@H]1O)Cn1cnc2ccc(-c3ccc(=O)[nH]c3)cc21 [Example 40, 5-(1-(3-((2R,3S)-3-hydroxypiperidin-2-yl)-2-oxopropyl)-1H-benzo[d]imidazol-6-yl)pyridin-2(1H)-one] | –
20 | < 100 | ≥ 10000 | O=C(C[C@H]1NCCC[C@@H]1O)Cn1c(CO)nc2ccc(-c3ccc(F)cc3)cc21 [Example 60, 1-(6-(4-fluorophenyl)-2-(hydroxymethyl)-1H-benzo[d]imidazol-1-yl)-3-((2R,3S)-3-hydroxypiperidin-2-yl)propan-2-one] | –
21 | 100 to 500 | ≥ 10000 | O=C(C[C@H]1NCCC[C@@H]1O)Cn1cnc2cccc(-c3ccccc3)c21 [Example 48, 1-((2R,3S)-3-hydroxypiperidin-2-yl)-3-(7-phenyl-1H-benzo[d]imidazol-1-yl)propan-2-one] | –
22 | < 100 | 3000 to 10000 | COc1cc(Cl)cc(-c2ccc3ncn(CC(=O)C[C@H]4NCCC[C@@H]4O)c3c2)c1 [Example 35, 1-(6-(3-chloro-5-methoxyphenyl)-1H-benzo[d]imidazol-1-yl)-3-((2R,3S)-3-hydroxypiperidin-2-yl)propan-2-one] | –
23 | < 100 | 3000 to 10000 | O=C(C[C@H]1NCCC[C@@H]1O)Cn1c(CO)nc2ccc(-c3ccccc3)cc21 [Example 57, 1-(2-(hydroxymethyl)-6-phenyl-1H-benzo[d]imidazol-1-yl)-3-((2R,3S)-3-hydroxypiperidin-2-yl)propan-2-one] | –
24 | < 100 | 3000 to 10000 | N#Cc1cc(Cl)cc(-c2ccc3ncn(CC(=O)C[C@H]4NCCC[C@@H]4O)c3c2)c1 [Example 36, 3-chloro-5-(1-(3-((2R,3S)-3-hydroxypiperidin-2-yl)-2-oxopropyl)-1H-benzo[d]imidazol-6-yl)benzonitrile] | –
